These results are taken from patent US11851712B2, “Replication stress response biomarkers for immunotherapy response” (Board of Regents, The University of Texas System, priority 2018, dated 2023).

Experiment [1] has as its system MCF10A shATR cells. Kind of experiment: Stem cell score from gene expression. The format is cell-based, human. Conditions: 48 hours, 0.5 μM AZD6244, MCF10A shATR cells. Here is the method:
Microarrays. Microarray analysis was conducted as described previously (Peng et al., 2014). Specifically, total RNA was extracted from the cells 48 hours after plating in presence or absence of doxycycline using a QIAGEN RNeasy RNA isolation kit. Complementary RNA was generated using a TotalPrep RNA amplification kit and loaded onto a HumanHT-12 v4 Expression BeadChip for analysis using the manufacturer's procedure.
Expression signature score. Expression signature scores were computed based on correlation coefficient between the coefficients in the gene signature and corresponding expression level in a given sample (McGrail et al., 2017; van de Vijver et al., 2002), with higher values representing a stronger correlation.

The subject of experiment [2] is p21. Kind of experiment: Western blot of p21 protein. The format is cell-based, human. Conditions: 0.5 μM AZD6244 or 0.1 μM SCH772984 for 48 hours, doxycycline 2 μg/mL.
Experiment [3] concerns RSRD cells (MCF-10A cyclin E). Kind of experiment: Senescence assay (senescence-associated β galactosidase staining). The format is cell-based, human. Particulars: 0.5 μM AZD6244 (MEKi) or 0.1 μM ERKi (SCH772984) for 48 hours. Here is the method: Senescence assay. shCTRL, shCTRL_cycE, and RSRD cells (5×10^4) were seeded in 6 wells for 48 h prior to treatment with MEK or ERK inhibitors in presence or absence of 2 μg/mL doxycycline to induce cyclin E expression. After the addition of these inhibitors, cells were cultured for another 48 h. Next, a senescence assay was performed using the senescence β-galactosidase staining kit according to the manufacturer's protocol. The percentage of senescent cells was calculated using the ratio of SA-βgal-positive cells to total cells. Mammosphere Formation Assay RSR defect model cells (5000) were seeded in an ultra-low-attachment surface 6-well plate (Corning) in mammosphere medium (50% DMEM, 50% DMEM/F12, […] hydrocortisone, 10 μg/mL insulin, 20 ng/mL recombinant EGF, 100 ng/mL cholera toxin) for 7 days in presence or absence of 2 μg/mL doxycycline to induce cyclin E expression. Spheres with diameters larger than 50 μm were scored as mammospheres.

The subject of experiment [4] is breast cancer cell lines / MCF10A shATR over-expressing cyclin E. Kind of experiment: Aldehyde dehydrogenase assay (Aldefluor, flow cytometry), CSC depletion. Format: cell-based, human. Conditions: 48 hours, AZD6244 0.5 or 1.0 μM, SCH772984 0.1 or 1.0 μM, MDA-MB-231, MDA-MB-436, MCF7-stem, M158, 4T1. As to the method:
Aldehyde dehydrogenase assay. Aldehyde dehydrogenase was detected using the Aldefluor kit ([…] Technologies) per the manufacturer's instructions. In brief, 1×10^6 cells/mL were incubated with Aldefluor reagent in presence or absence of ALDH inhibitor DEAB for 45 minutes at 37° C. Cells were washed, re-suspended in ALDH buffer, and analyzed by flow cytometry. Positive cells were gated relative to the DEAB-treated negative control. In some instances, cells were treated with AZD6244, SCH772984, or 2 μg/mL doxycycline 48 hours prior to analysis.

For experiment [5], the system named is 4T1 murine mammary carcinoma. Kind of experiment: 4T1 murine mammary carcinoma in syngeneic mice, combination with anti-PD1. The format is in vivo. Particulars: 25 mg/kg AZD7762 plus 10 mg/kg anti-PD1 (clone RMP1-14), Balb\C mice. The text has this:
FIG. 18. […] The 4T1 murine mammary carcinoma was implanted into syngeneic (Balb\C) mice and allowed to grow to ˜[…] before randomization.

Experiment [6] has as its system MDM2 phosphorylation. Kind of experiment: Western blot of MDM2 phosphorylation. Particulars: 0.1 μM SCH772984 for 48 hours vs DMSO. The format is cell-based, human.
Experiment [7] relates to p53. Kind of experiment: Western blot of p53 levels. Particulars: 0.1 μM SCH772984 for 48 hours vs DMSO. Format: cell-based, human.
For experiment [8], the target named is ATR (Homo sapiens, UniProt Q13535). Conditions: read-out: kinase inhibition IC50; cited from earlier work.
ATR, sequence (Q13535 whole entry): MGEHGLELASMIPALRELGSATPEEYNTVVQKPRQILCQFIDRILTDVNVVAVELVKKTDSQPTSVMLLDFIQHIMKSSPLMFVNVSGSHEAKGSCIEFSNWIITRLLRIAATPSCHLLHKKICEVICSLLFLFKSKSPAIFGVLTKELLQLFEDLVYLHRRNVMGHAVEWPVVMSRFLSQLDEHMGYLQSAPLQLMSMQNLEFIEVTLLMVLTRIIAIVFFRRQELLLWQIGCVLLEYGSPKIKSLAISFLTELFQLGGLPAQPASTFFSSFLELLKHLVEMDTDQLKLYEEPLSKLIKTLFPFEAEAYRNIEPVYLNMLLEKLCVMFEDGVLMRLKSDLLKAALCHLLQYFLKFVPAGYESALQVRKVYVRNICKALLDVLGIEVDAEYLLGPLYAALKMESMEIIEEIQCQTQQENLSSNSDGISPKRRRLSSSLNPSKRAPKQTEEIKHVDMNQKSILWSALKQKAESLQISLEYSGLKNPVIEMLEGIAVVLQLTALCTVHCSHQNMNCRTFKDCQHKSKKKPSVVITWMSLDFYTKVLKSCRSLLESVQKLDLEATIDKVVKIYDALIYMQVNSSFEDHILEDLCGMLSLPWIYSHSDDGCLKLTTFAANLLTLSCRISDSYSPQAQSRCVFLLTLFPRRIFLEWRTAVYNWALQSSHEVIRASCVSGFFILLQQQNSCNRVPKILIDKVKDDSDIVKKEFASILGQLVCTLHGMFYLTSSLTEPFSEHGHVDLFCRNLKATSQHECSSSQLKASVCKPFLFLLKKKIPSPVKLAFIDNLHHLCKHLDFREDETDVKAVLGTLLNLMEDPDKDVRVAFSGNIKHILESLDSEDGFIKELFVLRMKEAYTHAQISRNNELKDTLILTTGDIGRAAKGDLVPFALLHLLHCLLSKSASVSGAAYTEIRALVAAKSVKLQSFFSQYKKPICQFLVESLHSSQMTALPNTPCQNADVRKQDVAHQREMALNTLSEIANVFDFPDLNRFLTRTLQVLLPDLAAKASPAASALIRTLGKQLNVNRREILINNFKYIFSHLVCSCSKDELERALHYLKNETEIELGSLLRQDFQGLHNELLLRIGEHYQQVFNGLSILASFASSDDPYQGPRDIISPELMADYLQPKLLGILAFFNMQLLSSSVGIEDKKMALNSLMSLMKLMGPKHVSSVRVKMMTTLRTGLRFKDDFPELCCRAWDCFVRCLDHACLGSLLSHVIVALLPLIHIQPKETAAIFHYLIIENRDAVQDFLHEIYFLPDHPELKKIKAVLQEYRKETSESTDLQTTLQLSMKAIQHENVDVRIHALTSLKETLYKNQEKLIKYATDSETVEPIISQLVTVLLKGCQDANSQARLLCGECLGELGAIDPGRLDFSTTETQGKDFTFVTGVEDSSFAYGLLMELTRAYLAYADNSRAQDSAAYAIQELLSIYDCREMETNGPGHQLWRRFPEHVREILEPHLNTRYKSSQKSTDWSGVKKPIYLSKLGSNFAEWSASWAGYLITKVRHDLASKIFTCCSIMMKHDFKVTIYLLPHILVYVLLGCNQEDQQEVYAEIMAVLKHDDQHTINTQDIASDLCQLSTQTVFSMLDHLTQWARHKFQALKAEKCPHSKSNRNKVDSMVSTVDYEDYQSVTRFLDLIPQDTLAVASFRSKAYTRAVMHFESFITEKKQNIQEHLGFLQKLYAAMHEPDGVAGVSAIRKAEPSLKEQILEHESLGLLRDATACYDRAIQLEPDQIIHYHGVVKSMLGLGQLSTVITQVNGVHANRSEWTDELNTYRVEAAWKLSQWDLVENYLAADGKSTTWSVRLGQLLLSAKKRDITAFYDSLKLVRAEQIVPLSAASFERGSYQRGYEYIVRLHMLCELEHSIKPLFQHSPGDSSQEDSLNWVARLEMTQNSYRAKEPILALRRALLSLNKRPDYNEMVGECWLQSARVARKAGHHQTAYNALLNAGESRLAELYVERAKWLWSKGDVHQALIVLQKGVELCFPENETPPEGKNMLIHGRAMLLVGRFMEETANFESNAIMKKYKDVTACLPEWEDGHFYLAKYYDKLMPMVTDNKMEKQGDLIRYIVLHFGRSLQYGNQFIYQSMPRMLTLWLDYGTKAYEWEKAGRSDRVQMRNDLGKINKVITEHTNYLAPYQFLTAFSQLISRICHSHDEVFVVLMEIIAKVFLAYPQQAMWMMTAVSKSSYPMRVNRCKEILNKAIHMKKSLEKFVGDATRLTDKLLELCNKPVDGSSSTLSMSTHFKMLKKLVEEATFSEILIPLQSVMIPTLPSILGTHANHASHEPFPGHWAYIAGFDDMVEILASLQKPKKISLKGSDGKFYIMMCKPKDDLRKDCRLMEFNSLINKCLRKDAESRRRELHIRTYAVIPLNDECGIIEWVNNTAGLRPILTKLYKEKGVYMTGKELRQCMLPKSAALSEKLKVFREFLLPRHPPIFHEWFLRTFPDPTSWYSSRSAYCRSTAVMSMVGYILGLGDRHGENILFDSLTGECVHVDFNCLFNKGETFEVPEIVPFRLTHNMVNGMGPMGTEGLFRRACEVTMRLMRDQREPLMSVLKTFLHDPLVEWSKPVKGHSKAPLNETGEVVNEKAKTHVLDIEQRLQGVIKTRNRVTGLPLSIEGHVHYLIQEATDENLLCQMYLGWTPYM
ATR, sequence (Q8WXE1 whole entry partner): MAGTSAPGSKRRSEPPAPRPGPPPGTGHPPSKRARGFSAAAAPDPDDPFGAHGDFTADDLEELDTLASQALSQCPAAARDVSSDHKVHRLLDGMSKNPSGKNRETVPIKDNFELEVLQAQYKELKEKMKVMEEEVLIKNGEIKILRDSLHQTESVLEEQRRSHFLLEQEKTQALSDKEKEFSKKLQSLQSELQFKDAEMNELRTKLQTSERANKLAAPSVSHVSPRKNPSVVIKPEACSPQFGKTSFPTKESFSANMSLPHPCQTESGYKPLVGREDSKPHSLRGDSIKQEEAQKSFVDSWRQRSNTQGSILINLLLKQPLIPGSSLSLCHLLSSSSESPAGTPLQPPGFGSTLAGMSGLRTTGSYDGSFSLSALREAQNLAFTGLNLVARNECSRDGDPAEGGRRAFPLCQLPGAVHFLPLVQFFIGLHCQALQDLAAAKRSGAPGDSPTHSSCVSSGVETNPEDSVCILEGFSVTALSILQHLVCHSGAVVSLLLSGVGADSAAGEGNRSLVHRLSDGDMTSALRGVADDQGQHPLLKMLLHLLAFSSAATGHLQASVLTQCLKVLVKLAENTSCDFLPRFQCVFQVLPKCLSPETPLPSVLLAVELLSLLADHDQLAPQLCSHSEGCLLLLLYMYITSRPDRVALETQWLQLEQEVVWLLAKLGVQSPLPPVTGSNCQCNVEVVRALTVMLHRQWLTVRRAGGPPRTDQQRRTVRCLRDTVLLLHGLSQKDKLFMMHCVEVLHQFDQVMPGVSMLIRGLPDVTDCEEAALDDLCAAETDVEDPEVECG
The test system of experiment [9] is GBM patients. Particulars: neoadjuvant treatment, Cloughesy et al. (2019); cited from earlier work.

Take `Cn1cnc2c(F)c(Nc3ccc(Br)cc3Cl)c(C(=O)NOCCO)cc21` [AZD6244]: in experiment [1], the Stem cell score result was “can reverse the stem-cell phenotype”. Moreover, the p21 protein expression entry in experiment [2] is listed as “recovers p21 protein expression”. In addition, in experiment [3], the “oncogene-induced senescence by staining for senescence-associated β galactosidase” value is “restores oncogene-induced senescence”. Moreover, the “CSC depletion by aldehyde dehydrogenase (ALDH) positivity” value in experiment [4] is recorded as “CSCs are depleted”.

Turning to `NC(=O)Nc1cc(-c2cccc(F)c2)sc1C(=O)N[C@H]1CCCNC1` [AZD7762], the “tumor growth, sensitization to immunotherapy” value in [5] is “sensitizes cells to immunotherapy”.

Take `O=C(Nc1ccc2[nH]nc(-c3ccncc3)c2c1)[C@@H]1CCN(CC(=O)N2CCN(c3ccc(-c4ncccn4)cc3)CC2)C1` [SCH772984]: the MDM2 phosphorylation result in [6] is reported as “suppression of MDM2 phosphorylation”. In experiment [7], the p53 levels result is recorded as “negligible changes in p53 levels”. Also, the p21 protein expression result in experiment [2] was “recovers p21 protein expression”. Moreover, the “oncogene-induced senescence by staining for senescence-associated β galactosidase” value in [3] is reported as “restores oncogene-induced senescence”. In experiment [4], the “CSC depletion by aldehyde dehydrogenase (ALDH) positivity” value is reported as “CSCs are depleted”.

Turning to `CS(=O)(=O)c1ccc(-c2cnc(N)c(C(=O)Nc3ccccc3)n2)cc1` [VE821], in [8], the half-maximal inhibitory concentration (IC50) was 15 nM.

“pembrolizumab: anti-PD-1 antibody described in WO2009/114335”: the improvement in survival in [9] is reported as 6.2 month.
